Experimental data taken from paper PMC11413853, “Discovery of VU6007496: Challenges in the Development of an M1 Positive Allosteric Modulator Backup Candidate” (ACS Chemical Neuroscience, 2024).
pEC50: −log10 of the molar value. Where two headings read alike, the source gives them in different places.

Tests used:
mice = test: Mouse phenotypic seizure liability assay (modified Racine score); type: in vivo; conditions: 100 mg/kg i.p., male C57Bl/6 mice, 3 h
Experimental: Brain plasma concentration ratio (Kp) was calculated by dividing brain concentration by plasma concentration for each animal. Unbound brain to unbound plasma concentration ratio (Kp,uu) is calculated using the following formula: Kp,uu = (Brain ng/g x brain fu)/(plasma ng/ml x plasma fu). […]
Behavioral Manifestations of Seizure Activity
To evaluate induction of behavioral manifestation of seizure activity, C57Bl/6 mice received administration of vehicle or 100 mg/kg M1 PAM. Compounds were formulated in 30% Captisol (11) or 10% Tween 80 (2-4 and 12) (pH 7.0) at a concentration of 10 mg/mL and injected i.p. (n = 3). Animals were monitored continuously and scored for behavioral manifestations of seizure activity at 5, 10, 15, and 30 min, and 1 and 3 h. Behavioral manifestations of seizures were scored using a modified Racine scoring system.2 Briefly, a score of 0 represents no behavior alterations; score 1, immobility, mouth and facial movements, or facial clonus; score 2, head nodding, tail extension; score 3, forelimb clonus, repetitive movements; score 4, rearing and tonic clonic seizure; and score 5, continuous rearing and falling, severe generalized tonic clonic seizure.

human M1 = target: T1, human M1 (Homo sapiens, UniProt P11229); test: Calcium mobilization assay, human M1 (agonist and PAM modes); type: cell-based
T1 sequence (P11229 1-460): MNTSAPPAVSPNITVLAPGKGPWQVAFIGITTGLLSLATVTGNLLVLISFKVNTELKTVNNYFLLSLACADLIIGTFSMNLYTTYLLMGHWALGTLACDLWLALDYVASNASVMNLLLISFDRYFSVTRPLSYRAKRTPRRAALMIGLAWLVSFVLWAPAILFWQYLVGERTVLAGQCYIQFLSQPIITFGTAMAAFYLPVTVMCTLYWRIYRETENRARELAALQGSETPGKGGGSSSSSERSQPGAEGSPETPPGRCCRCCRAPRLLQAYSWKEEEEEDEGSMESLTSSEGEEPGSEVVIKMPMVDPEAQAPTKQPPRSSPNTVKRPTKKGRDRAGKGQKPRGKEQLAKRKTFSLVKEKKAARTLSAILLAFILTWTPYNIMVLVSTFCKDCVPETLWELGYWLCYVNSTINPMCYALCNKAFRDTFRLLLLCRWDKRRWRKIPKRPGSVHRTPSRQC

[1] = Rat plasma and brain exposure, 100 mg/kg i.p., 3 h; type: in vivo; conditions: brain and plasma, ip, 100 mg/kg i.p.
Text: Due to the prevalence of metabolite A (VU6036463, 24) in both in vitro preparations and in vivo, we first synthesized and characterized 24. Utilizing intermediate 19 (Scheme 3), a Suzuki coupling with benzyl chloride 28 afforded a mixture of N-Boc protected analog 29 and N-H analog 29a in moderate isolated yield. Hydrolysis of the nitriles to the carboxylic acid, followed by a HATU-mediated coupling with tetrahydro-2H-pyran-4-amine delivered 24 in 81% yield over the two steps.[21] In our kinetic assays, 24 was an “active” metabolite, with the profile of an M1 ago-PAM. […] To ascertain if 24 could be the source of the adverse cholinergic events in rats, we dosed 11 and 24, in parallel, at a dose of 100 mg/kg i.p. in 30% captisol and prepared plasma and brain samples at a 3-h time point to determine brain exposure of the M1 ago-PAM 24. In this study, 11 achieved a total plasma concentration of 3.6 μM and a total brain concentration of 0.93 μM (Kp = 0.26).

Row | SMILES | seizure liability / behavioral convulsions (modified Racine score) (mice) | hM1 PAM AChmax (%) (human M1; PAM mode, % ACh max) | pEC50 (human M1; PAM mode, read-out: hM1 PAM EC50) | hM1 Agonist AChmax (%) (human M1; agonist mode, % ACh max) | pEC50 (human M1; agonist mode, read-out: hM1 Agonist EC50) | Kp at 3 h [1]
1 | Cn1ccc(-c2ccc(Cn3cc(C(=O)N[C@H]4CCOC[C@@H]4O)c4ncccc43)cc2)n1 [compound 4, reference compound] | robust behavioral convulsions |  |  |  |  | 
2 | Cn1ccc(-c2ccc(Cc3cc(C(=O)N[C@H]4CCOC[C@@H]4O)nc4ccn(C)c34)cc2)n1 [compound 30] |  | 71 | 8.31 | 60 | 6.75 | 0.38
3 | Cc1ccc(Cc2cc3c(=O)n([C@H]4CCCC[C@@H]4O)cnc3c3ccccc23)cn1 [compound 3, reference compound] | robust behavioral convulsions |  |  |  |  | 
